Tested on: Na^+,K^+-ATPase
Experiment: Na^+,K^+-ATPase inhibition rate (potassium ion concentration antagonist type), molybdate colorimetry
Type: biochemical
Conditions: 1 µM
Protocol: It is known that ouabain inhibits the enzyme activity of Na^+,K^+-ATPase. As such the Na^+,K^+-ATPase inhibitory activity of the various substances used as antigens in Example 4, Part B was examined to investigate the correlation between that inhibitory activity and reactivity with the monoclonal antibody of the present invention.
1.35 ml of TES buffer (80 mM TES, 200 mM NaCl, 9 mM MgSO4·7H2O and 10 mM EGTA adjusted to pH 7.4 with NaOH), 0.27 ml of 0.2% ODG (octyl-D-glucoside), 0.27 ml of 10^-5 M sample (10^-6 M during reaction), and 0.44 ml of distilled water were added to a plastic test tube which was then placed in an incubator at 25°C. 0.27 ml of 1 mM or 100 mM KCl and 50 µl of ATPase solution (stock solution, in which 5 units of […] (Sigma) were dissolved in 2 ml of 10 mM TES (pH 7.4) diluted 2.5 times with 10 mM TES (pH 7.4) as necessary) were added followed by incubation for 5 - 10 minutes at 25°C. Next, the reaction was started by addition of 50 µl of ATP solution (71 mg of ATP dissolved in 5 ml of 10 mM TES (pH 7.4) (Sigma)).
The reaction was allowed to proceed at 25°C for 30 minutes in the case of using 1 mM KCl (0.1 mM in the reaction solution), and for 10 minutes in the case of using 100 mM KCl (10 mM in the reaction solution). Next, 0.03 ml of 1% Triton™ X-100 solution (in distilled water) and 0.3 ml of 2.5% AmM solution (5 g of (NH4)6Mo7O24·4H2O dissolved in 6 N H2SO4 and brought to a volume of 200 ml) were mixed immediately prior to use (for a total of 0.33 ml) and then added to the reaction solution followed by incubation for 10 minutes at 25°C to stop the reaction and develop color. The absorbance of the reaction solution was then measured at 660 nm and the Na^+,K^+-ATPase inhibition rate (%) was calculated according to the following formula. Na^+ ,K^+ -ATPase Inhibition Rate (%) = [(Ao -Aw )/Ao ] × 100 [formula] Ao: Na^+,K^+-ATPase activity when sample not added Aw: Na^+,K^+-ATPase activity when sample added

[1] = 0.1 mM K^+ in the reaction solution, sample 10^-6 M during reaction, 30 minutes at 25°C
[2] = 10 mM K^+ in the reaction solution, sample 10^-6 M during reaction, 10 minutes at 25°C

| Structure (SMILES) | (Na^+,K^+-ATPase Inhibition) Rate (%) 0.1 mM K^+ [1] | (Na^+,K^+-ATPase Inhibition) Rate (%) 10 mM K^+ [2] | (Na^+,K^+-ATPase Inhibition) Rate (%) 0.1 mM K^+ | (Na^+,K^+-ATPase Inhibition) Rate (%) 10 mM K^+ |
| --- | --- | --- | --- | --- |
| C[C@H]1CCCC[C@H]1O (relative stereo) [cis-2-Methylcyclohexanol] | -2% | 2% | – | – |
| O=C1C=CCO1 [2(5H)-Furanone] | 6% | -5% | – | – |
| CCCCC/C=C\C/C=C\C/C=C\C/C=C\CCCC(=O)O [Arachidonic acid] | -5% | -2% | – | – |
| C[C@H](CCC(=O)O)[C@H]1CC[C@H]2[C@@H]3[C@H](O)C[C@@H]4C[C@H](O)CC[C@]4(C)[C@H]3C[C@H](O)[C@]12C [Cholic acid] | 2% | -3% | – | – |
| C[C@]12C[C@H](O)[C@H]3[C@@H](CCC4=CC(=O)CC[C@@]43C)[C@@H]1CC[C@@H]2C(=O)CO [Corticosterone] | -4% | 1% | – | – |
| OC1CCCCC1 [Cyclohexanol] | -3% | 0.4% | – | – |
| C[C@]12CC[C@H](O)C[C@H]1CC[C@@H]1[C@@H]2CC[C@]2(C)[C@@H](C3=CC(=O)OC3)CC[C@]12O [Digitoxigenin] | – | – | 44% | 17% |
| C[C@H]1O[C@@H](O[C@H]2[C@@H](O)C[C@H](O[C@H]3[C@@H](O)C[C@H](O[C@H]4CC[C@@]5(C)[C@H](CC[C@@H]6[C@@H]5CC[C@]5(C)[C@@H](C7=CC(=O)OC7)CC[C@]65O)C4)O[C@@H]3C)O[C@@H]2C)C[C@H](O)[C@@H]1O [Digitoxin] | 41% | 11% | – | – |
| C[C@H]1O[C@@H](O[C@H]2[C@@H](O)C[C@H](O[C@H]3[C@@H](O)C[C@H](O[C@H]4CC[C@@]5(C)[C@H](CC[C@@H]6[C@@H]5C[C@@H](O)[C@]5(C)[C@@H](C7=CC(=O)OC7)CC[C@]65O)C4)O[C@@H]3C)O[C@@H]2C)C[C@H](O)[C@@H]1O [Digoxin] | – | – | 45% | 18% |
| C[C@]12CCC(=O)C=C1CC[C@@H]1[C@@H]2[C@@H](O)C[C@@]2(C)[C@H]1CC[C@]2(O)C(=O)CO [Hydrocortisone] | -3% | -1% | – | – |
| C[C@@H]1OC(O)[C@H](O)[C@H](O)[C@H]1O (stereo partly drawn) [L-Rhamnose] | -2% | -4% | – | – |
| CCCCC/C=C\C/C=C\CCCCCCCC(=O)O [Linoleic acid] | -7% | -5% | – | – |
| CCCCCCCCCCCCCCCCOC[C@@H](O)COP(=O)([O-])OCC[N+](C)(C)C [LisoPAF, L-α-lysophosphatidylcholine-γ-O-hexadecyl] | -2% | 0.4% | – | – |
| C[C@]12C[C@@H](O)[C@H]3[C@@H](CC[C@]4(O)C[C@@H](O)C[C@@H](O)[C@]34CO)[C@@]1(O)CC[C@@H]2C1=CC(=O)OC1 [Ouabagenin] | 44% | 6% | – | – |
| C[C@@H]1O[C@@H](O[C@H]2C[C@@H](O)[C@]3(CO)[C@H]4[C@H](O)C[C@]5(C)[C@@H](C6=CC(=O)OC6)CC[C@]5(O)[C@@H]4CC[C@]3(O)C2)[C@H](O)[C@H](O)[C@H]1O [Ouabain] | 41% | 18% | – | – |
| CCCCCCCCCCCCCCCCOC[C@H](COP(=O)([O-])OCC[N+](C)(C)C)OC(C)=O [PAF, L-d-phosphatidylcholine-β-aceyl-γ-O-hexadecyl] | -3% | 1% | – | – |
| CC(=O)[C@H]1CC[C@H]2[C@@H]3CCC4=CC(=O)CC[C@]4(C)[C@H]3CC[C@]12C [Progesterone] | 3% | 5% | – | – |
| C[C@]12CC[C@H](O)C[C@@H]1CC[C@@H]1[C@@H]2CC[C@]2(C)[C@@H](C3=CC(=O)OC3)CC[C@]12O [Uzarigenin] | – | – | 42% | 6% |
| C1CC[C@H]2CCC[C@H]2C1 [cis-Hydrindane] | -1% | 0.5% | – | – |
| C[C@]12CCC(=O)C=C1CC[C@@H]1[C@@H]2[C@@H](O)C[C@]2(C=O)[C@@H](C(=O)CO)CC[C@@H]12 [α-Aldosterone] | 1% | -11% | – | – |
